Experimental data reported in the kinase profiling compilation of Christmann-Franck et al. (2016).

How the values were obtained:
Experiment in all cases: radiometric filter-binding kinase assay, Kinase HotSpot
Details in all cases: compound 0.5 µM; ATP 10 µM
[1] = biological target: TSSK1B (human) (UniProt Q9BXA7)
[2] = biological target: ROCK2 (human) (UniProt O75116)
[3] = biological target: HIPK1 (human) (UniProt Q86Z02)
[4] = biological target: STK4 (human) (UniProt Q13043)
[5] = biological target: AKT3 (human) (UniProt Q9Y243)
[6] = biological target: ALK (human) (UniProt Q9UM73)
ALK (human), sequence (Q9UM73 whole entry, looked up): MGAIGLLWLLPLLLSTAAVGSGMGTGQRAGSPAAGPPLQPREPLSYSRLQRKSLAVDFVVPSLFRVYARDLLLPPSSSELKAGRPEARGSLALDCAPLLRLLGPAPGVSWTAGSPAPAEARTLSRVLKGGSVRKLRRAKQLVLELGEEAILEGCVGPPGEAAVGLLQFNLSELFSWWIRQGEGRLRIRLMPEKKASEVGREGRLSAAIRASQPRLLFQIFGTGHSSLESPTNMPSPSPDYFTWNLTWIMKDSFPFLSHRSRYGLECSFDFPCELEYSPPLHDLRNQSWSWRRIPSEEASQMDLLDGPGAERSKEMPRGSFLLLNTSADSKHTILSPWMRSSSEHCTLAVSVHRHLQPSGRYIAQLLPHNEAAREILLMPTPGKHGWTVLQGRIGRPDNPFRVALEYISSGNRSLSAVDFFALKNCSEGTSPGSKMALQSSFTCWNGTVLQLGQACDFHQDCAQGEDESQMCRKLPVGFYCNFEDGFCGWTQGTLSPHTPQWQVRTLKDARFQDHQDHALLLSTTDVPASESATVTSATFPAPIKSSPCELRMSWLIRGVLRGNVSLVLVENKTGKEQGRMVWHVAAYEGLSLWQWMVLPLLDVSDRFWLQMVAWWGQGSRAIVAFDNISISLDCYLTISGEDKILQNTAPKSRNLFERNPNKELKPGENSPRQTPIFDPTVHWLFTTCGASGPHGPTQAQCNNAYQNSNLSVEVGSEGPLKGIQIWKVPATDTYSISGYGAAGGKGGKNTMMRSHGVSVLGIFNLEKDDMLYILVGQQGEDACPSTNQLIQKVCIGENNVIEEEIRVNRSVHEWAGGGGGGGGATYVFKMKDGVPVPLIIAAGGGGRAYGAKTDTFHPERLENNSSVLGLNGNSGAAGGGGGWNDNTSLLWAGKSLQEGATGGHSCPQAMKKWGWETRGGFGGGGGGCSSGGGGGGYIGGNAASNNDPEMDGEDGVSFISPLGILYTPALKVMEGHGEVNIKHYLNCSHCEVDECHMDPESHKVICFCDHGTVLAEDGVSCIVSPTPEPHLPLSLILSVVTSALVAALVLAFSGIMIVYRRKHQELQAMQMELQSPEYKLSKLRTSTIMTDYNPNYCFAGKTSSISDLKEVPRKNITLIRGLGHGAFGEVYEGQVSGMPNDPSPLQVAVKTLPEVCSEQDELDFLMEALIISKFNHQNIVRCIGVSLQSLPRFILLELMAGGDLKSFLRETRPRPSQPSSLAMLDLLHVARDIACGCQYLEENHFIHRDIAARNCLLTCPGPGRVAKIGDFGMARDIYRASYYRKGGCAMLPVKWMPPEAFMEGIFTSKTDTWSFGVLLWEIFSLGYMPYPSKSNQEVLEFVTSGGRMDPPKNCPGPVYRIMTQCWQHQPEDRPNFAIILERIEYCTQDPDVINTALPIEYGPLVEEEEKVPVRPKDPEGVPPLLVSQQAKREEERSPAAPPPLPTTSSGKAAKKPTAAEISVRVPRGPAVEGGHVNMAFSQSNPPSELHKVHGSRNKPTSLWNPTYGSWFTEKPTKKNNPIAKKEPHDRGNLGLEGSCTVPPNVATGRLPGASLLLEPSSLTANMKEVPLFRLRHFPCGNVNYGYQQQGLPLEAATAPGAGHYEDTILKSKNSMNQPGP

[7] = biological target: PRKCI (human) (UniProt P41743)
[8] = biological target: CDK4 CCND1 (human) (UniProt P24385+P11802)
CDK4 CCND1 (human), sequence (P11802 whole entry, looked up): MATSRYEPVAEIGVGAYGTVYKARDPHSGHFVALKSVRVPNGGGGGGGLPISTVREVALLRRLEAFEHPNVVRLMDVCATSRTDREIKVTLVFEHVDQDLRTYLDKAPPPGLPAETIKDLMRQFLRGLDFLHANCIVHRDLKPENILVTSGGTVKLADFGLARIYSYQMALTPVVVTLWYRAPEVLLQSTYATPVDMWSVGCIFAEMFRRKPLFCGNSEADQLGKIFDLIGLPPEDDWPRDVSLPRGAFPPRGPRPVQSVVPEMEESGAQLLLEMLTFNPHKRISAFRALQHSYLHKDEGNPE
CDK4 CCND1 (human), sequence (P24385 whole entry, looked up): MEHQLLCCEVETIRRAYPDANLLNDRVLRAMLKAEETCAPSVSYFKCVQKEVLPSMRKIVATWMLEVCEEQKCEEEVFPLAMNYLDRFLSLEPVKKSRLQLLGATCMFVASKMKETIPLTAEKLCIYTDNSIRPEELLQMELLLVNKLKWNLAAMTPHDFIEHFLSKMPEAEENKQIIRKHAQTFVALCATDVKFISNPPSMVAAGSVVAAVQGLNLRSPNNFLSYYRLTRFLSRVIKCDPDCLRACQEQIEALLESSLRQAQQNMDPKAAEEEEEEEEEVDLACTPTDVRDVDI

[9] = biological target: PLK2 (human) (UniProt Q9NYY3)
PLK2 (human), sequence (Q9NYY3 whole entry, looked up): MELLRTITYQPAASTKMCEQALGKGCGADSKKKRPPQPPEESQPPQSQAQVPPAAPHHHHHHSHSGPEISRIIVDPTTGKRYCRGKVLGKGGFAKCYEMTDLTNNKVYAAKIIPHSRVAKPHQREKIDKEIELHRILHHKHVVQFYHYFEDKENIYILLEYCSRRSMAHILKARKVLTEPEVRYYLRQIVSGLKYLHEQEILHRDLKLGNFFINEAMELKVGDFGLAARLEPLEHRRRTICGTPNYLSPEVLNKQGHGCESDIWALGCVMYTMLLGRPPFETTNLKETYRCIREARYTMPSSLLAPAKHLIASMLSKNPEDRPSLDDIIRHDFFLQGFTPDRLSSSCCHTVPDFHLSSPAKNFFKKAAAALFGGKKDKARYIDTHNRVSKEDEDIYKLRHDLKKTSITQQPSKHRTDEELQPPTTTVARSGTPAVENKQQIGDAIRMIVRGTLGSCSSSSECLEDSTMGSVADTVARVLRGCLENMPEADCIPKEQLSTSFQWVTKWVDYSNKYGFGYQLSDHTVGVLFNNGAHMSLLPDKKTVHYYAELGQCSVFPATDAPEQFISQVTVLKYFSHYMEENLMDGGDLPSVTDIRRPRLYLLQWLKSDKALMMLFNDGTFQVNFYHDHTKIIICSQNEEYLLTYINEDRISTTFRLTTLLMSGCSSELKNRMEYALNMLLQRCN

[10] = biological target: ADRBK1 (human) (UniProt P25098)
ADRBK1 (human), sequence (P25098 whole entry, looked up): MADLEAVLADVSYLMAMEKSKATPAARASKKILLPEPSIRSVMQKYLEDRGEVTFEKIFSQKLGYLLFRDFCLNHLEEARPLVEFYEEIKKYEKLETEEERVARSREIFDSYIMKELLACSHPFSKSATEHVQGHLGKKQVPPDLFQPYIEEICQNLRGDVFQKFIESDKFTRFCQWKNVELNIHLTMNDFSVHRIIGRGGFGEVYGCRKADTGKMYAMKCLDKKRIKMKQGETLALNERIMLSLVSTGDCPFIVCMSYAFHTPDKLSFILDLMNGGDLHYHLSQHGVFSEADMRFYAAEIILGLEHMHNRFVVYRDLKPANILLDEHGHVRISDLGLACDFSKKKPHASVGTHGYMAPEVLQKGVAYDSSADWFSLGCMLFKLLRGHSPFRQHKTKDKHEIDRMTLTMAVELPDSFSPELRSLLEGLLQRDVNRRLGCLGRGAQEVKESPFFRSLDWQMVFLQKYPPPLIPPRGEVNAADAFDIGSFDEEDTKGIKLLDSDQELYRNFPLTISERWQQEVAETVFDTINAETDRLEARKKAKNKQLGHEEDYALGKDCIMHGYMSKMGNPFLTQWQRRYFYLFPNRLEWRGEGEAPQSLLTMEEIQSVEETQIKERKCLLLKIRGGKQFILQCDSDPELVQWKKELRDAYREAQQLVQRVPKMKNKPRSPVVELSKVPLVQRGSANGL

[11] = biological target: PAK3 (human) (UniProt O75914)
[12] = biological target: DDR2 (human) (UniProt Q16832)
[13] = biological target: PTK2B (human) (UniProt Q14289)
[14] = biological target: SRC (human) (UniProt P12931)
[15] = biological target: MAP3K8 (human) (UniProt P41279)
[16] = biological target: EPHB1 (human) (UniProt P54762)
[17] = biological target: PAK6 (human) (UniProt Q9NQU5)
[18] = biological target: MUSK (human) (UniProt O15146)
[19] = biological target: OXSR1 (human) (UniProt O95747)
[20] = biological target: IRAK4 (human) (UniProt Q9NWZ3)
[21] = biological target: PRKD3 (human) (UniProt O94806)
[22] = biological target: ROCK1 (human) (UniProt Q13464)
[23] = biological target: MAP2K2 (human) (UniProt P36507)
[24] = biological target: MAP2K1 (human) (UniProt Q02750)
MAP2K1 (human), sequence (Q02750 whole entry, looked up): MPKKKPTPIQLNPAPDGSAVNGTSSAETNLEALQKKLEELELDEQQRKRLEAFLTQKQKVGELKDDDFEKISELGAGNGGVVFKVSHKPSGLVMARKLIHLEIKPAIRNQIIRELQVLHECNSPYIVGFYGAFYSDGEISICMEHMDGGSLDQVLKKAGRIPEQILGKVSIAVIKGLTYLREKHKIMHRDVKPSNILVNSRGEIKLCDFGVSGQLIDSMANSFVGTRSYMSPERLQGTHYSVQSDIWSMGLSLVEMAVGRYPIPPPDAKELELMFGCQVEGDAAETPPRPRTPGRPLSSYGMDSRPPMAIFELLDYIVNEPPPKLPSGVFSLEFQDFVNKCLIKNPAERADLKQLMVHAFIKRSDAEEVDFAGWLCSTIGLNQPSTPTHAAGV

[25] = biological target: MAP3K10 (human) (UniProt Q02779)
[26] = biological target: MAP3K14 (human) (UniProt Q99558)
[27] = biological target: MAPK11 (human) (UniProt Q15759)
[28] = biological target: RPS6KB1 (human) (UniProt P23443)
[29] = biological target: STK17A (human) (UniProt Q9UEE5)
[30] = biological target: CSNK1G1 (human) (UniProt Q9HCP0)
[31] = system: MAP2K6 (human), P52564 [S207E/T211E]
[32] = biological target: DYRK3 (human) (UniProt O43781)
[33] = biological target: BLK (human) (UniProt P51451)
[34] = biological target: CLK2 (human) (UniProt P49760)
[35] = biological target: BRSK2 (human) (UniProt Q8IWQ3)
[36] = biological target: CAMK1 (human) (UniProt Q14012)
[37] = biological target: LTK (human) (UniProt P29376)
LTK (human), sequence (P29376 whole entry, looked up): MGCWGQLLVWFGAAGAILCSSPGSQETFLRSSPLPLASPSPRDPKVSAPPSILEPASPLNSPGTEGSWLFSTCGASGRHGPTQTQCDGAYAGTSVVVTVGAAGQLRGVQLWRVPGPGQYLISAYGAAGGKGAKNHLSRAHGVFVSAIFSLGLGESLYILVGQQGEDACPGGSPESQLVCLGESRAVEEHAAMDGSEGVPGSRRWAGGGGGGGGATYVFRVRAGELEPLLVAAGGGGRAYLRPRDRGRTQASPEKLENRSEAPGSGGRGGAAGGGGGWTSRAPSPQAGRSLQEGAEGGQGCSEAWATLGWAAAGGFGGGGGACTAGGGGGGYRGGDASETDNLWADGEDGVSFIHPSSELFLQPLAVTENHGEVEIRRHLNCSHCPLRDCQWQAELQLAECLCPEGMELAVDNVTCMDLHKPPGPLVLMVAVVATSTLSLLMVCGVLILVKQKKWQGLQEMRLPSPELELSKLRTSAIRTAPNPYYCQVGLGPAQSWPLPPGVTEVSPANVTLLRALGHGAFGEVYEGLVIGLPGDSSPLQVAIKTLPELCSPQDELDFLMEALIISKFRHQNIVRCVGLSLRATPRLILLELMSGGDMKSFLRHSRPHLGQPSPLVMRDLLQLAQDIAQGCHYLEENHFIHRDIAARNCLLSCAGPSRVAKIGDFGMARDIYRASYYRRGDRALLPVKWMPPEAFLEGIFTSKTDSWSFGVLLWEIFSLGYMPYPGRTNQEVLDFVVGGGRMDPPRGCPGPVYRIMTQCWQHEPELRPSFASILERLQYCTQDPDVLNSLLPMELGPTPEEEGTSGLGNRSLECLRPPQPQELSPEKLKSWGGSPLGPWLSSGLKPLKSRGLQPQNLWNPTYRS

[38] = biological target: CSNK1E (human) (UniProt P49674)
[39] = biological target: SIK2 (human) (UniProt Q9H0K1)
[40] = biological target: STK16 (human) (UniProt O75716)
[41] = biological target: CHEK1 (human) (UniProt O14757)
[42] = biological target: IKBKE (human) (UniProt Q14164)

## c1ccc2c(-c3ccncc3)c[nH]c2c1
[1]
  residual activity: 103%
[2]
  residual activity: 71.9%
[3]
  residual activity: 97.4%
[4]
  residual activity: 103%
[5]
  residual activity: 101%
[6]
  residual activity: 106%
[7]
  residual activity: 82.4%
[8]
  residual activity: 112%
[9]
  residual activity: 99.9%
[10]
  residual activity: 97.7%
[11]
  residual activity: 102%
[12]
  residual activity: 92.6%
[13]
  residual activity: 95.3%
[14]
  residual activity: 100%
[15]
  residual activity: 99%
[16]
  residual activity: 108%
[17]
  residual activity: 104%
[18]
  residual activity: 78.9%
[19]
  residual activity: 97.2%
[20]
  residual activity: 109%
[21]
  residual activity: 90.7%
[22]
  residual activity: 84.2%
[23]
  residual activity: 103%
[24]
  residual activity: 96.5%
[25]
  residual activity: 101%
[26]
  residual activity: 112%
[27]
  residual activity: 112%
[28]
  residual activity: 79.9%
[29]
  residual activity: 93%
[30]
  residual activity: 79.2%
[31]
  residual activity: 106%
[32]
  residual activity: 101%
[33]
  residual activity: 99.6%
[34]
  residual activity: 101%
[35]
  residual activity: 98.6%
[36]
  residual activity: 108%
[37]
  residual activity: 103%
[38]
  residual activity: 100%
[39]
  residual activity: 90.5%
[40]
  residual activity: 110%
[41]
  residual activity: 104%
[42]
  residual activity: 96.4%

## CS(=O)(=O)CCNCc1ccc(-c2ccc3ncnc(Nc4ccc(OCc5cccc(F)c5)c(Cl)c4)c3c2)o1
[1]
  residual activity: 79%
[2]
  residual activity: 92.7%
[3]
  residual activity: 97.1%
[4]
  residual activity: 99.4%
[5]
  residual activity: 83.5%
[6]
  residual activity: 104%
[7]
  residual activity: 106%
[8]
  residual activity: 94.8%
[9]
  residual activity: 103%
[10]
  residual activity: 94.8%
[11]
  residual activity: 105%
[12]
  residual activity: 107%
[13]
  residual activity: 101%
[14]
  residual activity: 102%
[15]
  residual activity: 99.7%
[16]
  residual activity: 104%
[17]
  residual activity: 106%
[18]
  residual activity: 96.5%
[19]
  residual activity: 105%
[20]
  residual activity: 91.5%
[21]
  residual activity: 88.6%
[22]
  residual activity: 108%
[23]
  residual activity: 106%
[24]
  residual activity: 105%
[25]
  residual activity: 108%
[26]
  residual activity: 109%
[27]
  residual activity: 101%
[28]
  residual activity: 95.7%
[29]
  residual activity: 89.7%
[30]
  residual activity: 105%
[31]
  residual activity: 95.4%
[32]
  residual activity: 90.2%
[33]
  residual activity: 95.9%
[34]
  residual activity: 95.1%
[35]
  residual activity: 106%
[36]
  residual activity: 102%
[37]
  residual activity: 100%
[38]
  residual activity: 99.4%
[39]
  residual activity: 101%
[40]
  residual activity: 97.1%
[41]
  residual activity: 100%
[42]
  residual activity: 94.9%

## Cc1nc(-c2ccccc2)c(-c2ccncc2)o1
[1]
  residual activity: 108%
[2]
  residual activity: 97.6%
[3]
  residual activity: 102%
[4]
  residual activity: 104%
[5]
  residual activity: 106%
[6]
  residual activity: 108%
[7]
  residual activity: 101%
[8]
  residual activity: 114%
[9]
  residual activity: 106%
[10]
  residual activity: 100%
[11]
  residual activity: 100%
[12]
  residual activity: 97.4%
[13]
  residual activity: 100%
[14]
  residual activity: 96.2%
[15]
  residual activity: 89.9%
[16]
  residual activity: 107%
[17]
  residual activity: 103%
[18]
  residual activity: 95.9%
[19]
  residual activity: 102%
[20]
  residual activity: 107%
[21]
  residual activity: 94.3%
[22]
  residual activity: 99.8%
[23]
  residual activity: 106%
[24]
  residual activity: 90.7%
[25]
  residual activity: 101%
[26]
  residual activity: 96.2%
[27]
  residual activity: 101%
[28]
  residual activity: 92.8%
[29]
  residual activity: 99.5%
[30]
  residual activity: 91.1%
[31]
  residual activity: 99.3%
[32]
  residual activity: 105%
[33]
  residual activity: 95.4%
[34]
  residual activity: 98.2%
[35]
  residual activity: 95%
[36]
  residual activity: 105%
[37]
  residual activity: 107%
[38]
  residual activity: 69.9%
[39]
  residual activity: 86.2%
[40]
  residual activity: 109%
[41]
  residual activity: 106%
[42]
  residual activity: 102%
